PMC6792352, “Limited Chemical Structural Diversity Found to Modulate Thyroid Hormone Receptor in the Tox21 Chemical Library” (Environmental Health Perspectives, 2019)
Counter-ions that a name gives are not always drawn.

Assay: in vitro
Conditions: rat, gh3-tre-luc cells

Compound	CC50 at 24 h (AC50 (uM) modified / 1000) [µM]	also measured
COC(=O)CC(C)=O [Methyl acetoacetate]	> 90	
C=CC(=O)OC [Methyl acrylate]	> 90	
CO[C@H]1O[C@H](CO)[C@@H](O)[C@H](O)[C@H]1O [Methyl alpha-D-glucopyranoside]	> 90	
COC(=O)CCC(=O)CN [Methyl aminolevulinate hydrochloride]	> 50	
COC(=O)c1ccccc1 [Methyl benzoate]	> 90	
CCCC(=O)OC [Methyl butyrate]	> 90	
COC(N)=O [Methyl carbamate]	> 90	
COC(=O)NN [Methyl carbazate]	> 90	
COC(=O)CC(C)CCC=C(C)C (centres unmarked) [Methyl citronellate]	> 90	
COC(=O)CC#N [Methyl cyanoacetate]	> 100	
CCCCCCCCCC(=O)OC [Methyl decanoate]	> 90	
CCCCCC1C(=O)CCC1CC(=O)OC (centres unmarked) [Methyl dihydrojasmonate]	> 90	
CSSC [Methyl disulfide]		CC50 at 24 h (AC50 (uM) modified / 1000, Tox21_110001=Tox21_201525, viability, 1 nM T3 present, 24 h): > 90 µM
CCCCCCCCCCCC(=O)OC [Methyl dodecanoate]	> 90	
CCC(C)=O [Methyl ethyl ketone]	> 90	
COC=O [Methyl formate]	> 8	
COC(=O)/C=C(\C)CCC=C(C)C [Methyl geranate]	> 90	
COc1ccc([C@@H]2CC(=O)c3c(O)cc(O[C@@H]4O[C@H](CO[C@@H]5O[C@@H](C)[C@H](O)[C@@H](O)[C@H]5O)[C@@H](O)[C@H](O)[C@H]4O)cc3O2)cc1OC [Methyl hesperidin]	> 90	
CCCCCCCCCCCCCCCC(=O)OC [Methyl hexadecanoate]	> 30	
COC(=O)CCCCC(=O)O [Methyl hexanedioate]	> 90	
CN=C=O [Methyl isocyanate]	> 90	
CN=C=S [Methyl isothiocyanate]		CC50 at 24 h (AC50 (uM) modified / 1000, Tox21_110001=Tox21_201548, viability, 1 nM T3 present, 24 h): > 90 µM; CC50 at 24 h (AC50 (uM) modified / 1000, Tox21_110001=Tox21_300912, viability, 1 nM T3 present, 24 h): > 200 µM
C=C(C)C(=O)OC [Methyl methacrylate]	> 90	
COS(C)(=O)=O [Methyl methanesulfonate]	> 100	

Compound	CC50 at 24 h (AC50 (uM) modified / 1000) [µM]	also measured
COC(=O)c1cccnc1 [Methyl nicotinate]	> 90	
CCCCCCCC(=O)OC [Methyl octanoate]	> 90	
COC(=O)Cc1ccccc1 [Methyl phenylacetate]		CC50 at 24 h (AC50 (uM) modified / 1000, Tox21_110001=Tox21_300792, viability, 1 nM T3 present, 24 h): > 90 µM
COC(=O)C(C)(C)C [Methyl pivalate]	> 90	
COC(=O)CC(=O)C(C)(C)C [Methyl pivaloylacetate]	> 90	
CCC(=O)OC [Methyl propanoate]	> 90	
CCCCCC[C@@H](O)C/C=C\CCCCCCCC(=O)OC [Methyl ricinoleate]	> 90	
COC(=O)c1ccccc1O [Methyl salicylate]	> 90	
CC(=O)C=Cc1ccccc1 [Methyl styryl ketone]		CC50 at 24 h (AC50 (uM) modified / 1000, Tox21_110001=Tox21_201502, viability, 1 nM T3 present, 24 h): > 90 µM
COC(C)(C)C [Methyl tert-butyl ether]	> 90	
CCCCCCCCCCCCCC(=O)OC [Methyl tetradecanoate]	> 90	
COC(=O)CS [Methyl thioglycolate]	> 90	
CC(=O)/C=C/c1ccccc1 [Methyl trans-styryl ketone]		CC50 at 24 h (AC50 (uM) modified / 1000, Tox21_110001=Tox21_301598, viability, 1 nM T3 present, 24 h): > 90 µM
COc1cc(Cl)ccc1Oc1ccc(Cl)cc1Cl [Methyl triclosan]	60.4	
COS(=O)(=O)C(F)(F)F [Methyl trifluoromethanesulfonate]	> 100	
C=CC(C)=O [Methyl vinyl ketone]		CC50 at 24 h (AC50 (uM) modified / 1000, Tox21_110001=Tox21_200363, viability, 1 nM T3 present, 24 h): > 90 µM
CN [Methylammonium nitrate]	> 100	
CNC(=O)OCC[N+](C)(C)C [Methylcarbamylcholine chloride]		CC50 at 24 h (AC50 (uM) modified / 1000, Tox21_110001=Tox21_111257, viability, 1 nM T3 present, 24 h): > 50 µM
CC1CCCC1 [Methylcyclopentane]	> 90	
CO[C@H]1[C@@H](O)C[C@H](O[C@H]2[C@@H](O)C[C@H](O[C@H]3[C@@H](O)C[C@H](O[C@H]4CC[C@@]5(C)[C@H](CC[C@@H]6[C@@H]5C[C@@H](O)[C@]5(C)[C@@H](C7=CC(=O)OC7)CC[C@]65O)C4)O[C@@H]3C)O[C@@H]2C)O[C@@H]1C [Methyldigoxin]	> 50	
C[C@](N)(Cc1ccc(O)c(O)c1)C(=O)O [Methyldopa sesquihydrate]	> 90	
CCOC(=O)[C@@](C)(N)Cc1ccc(O)c(O)c1 [Methyldopate hydrochloride]	> 20	
N#CSCSC#N [Methylene bis(thiocyanate)]		CC50 at 24 h (AC50 (uM) modified / 1000, Tox21_110001=Tox21_202325, viability, 1 nM T3 present, 24 h): 3.41 µM; CC50 at 24 h (AC50 (uM) modified / 1000, Tox21_110001=Tox21_301058, viability, 1 nM T3 present, 24 h): 5.63 µM
C=C(CC(=O)O)C(=O)O [Methylenebutanedioic acid]	> 90	

Compound	CC50 at 24 h (AC50 (uM) modified / 1000) [µM]	also measured
C[C@@H]([C@H](O)c1ccccc1)N(C)C [Methylephedrine]		CC50 at 24 h (AC50 (uM) modified / 1000, Tox21_110001=Tox21_111521, viability, 1 nM T3 present, 24 h): > 50 µM
C=CCc1ccc(OC)c(OC)c1 [Methyleugenol]	> 90	
CNN [Methylhydrazine sulfate]	> 90	
Cc1cc(O)ccc1O [Methylhydroquinone]	14.8	
CCC(=O)/C=C/C1C(C)=CCCC1(C)C (centres unmarked) [Methylionone]	> 90	
COC(=O)c1ccc(O)cc1 [Methylparaben]	> 90	
CC1CCN(CCCC(=O)c2ccc(F)cc2)CC1 [Methylperone]	> 50	
COC(=O)C(c1ccccc1)C1CCCCN1 (centres unmarked) [Methylphenidate hydrochloride]	> 90	
CO[SiH](C)C [Methylpolysilicone]	> 100	
CC(=O)OCC(=O)[C@@]1(O)CC[C@H]2[C@@H]3C[C@H](C)C4=CC(=O)C=C[C@]4(C)[C@H]3[C@@H](O)C[C@@]21C [Methylprednisolone acetate]	> 50	
C[C@H]1C[C@@H]2[C@H]([C@@H](O)C[C@@]3(C)[C@H]2CC[C@]3(O)C(=O)COC(=O)CCC(=O)O)[C@@]2(C)C=CC(=O)C=C12 [Methylprednisolone succinate]	> 50	
COC(=O)C(C)=O [Methylpyruvate]	> 90	
CC(=O)O[Si](C)(OC(C)=O)OC(C)=O [Methylsilanetriyl triacetate]	> 90	
CCCCCCCC[N+](C)(CCCCCCCC)CCCCCCCC [Methyltrioctylammonium trifluoromethanesulfonate]	4.19	
CC[C@@H](CO)NC(=O)[C@@H]1C=C2c3cccc4c3c(cn4C)C[C@H]2N(C)C1 [Methysergide]	> 50	
COC1=CC(=O)O[C@@H](/C=C/c2ccc3c(c2)OCO3)C1 [Methysticin]	> 90	
Cc1cc2c(cc1S(N)(=O)=O)S(=O)(=O)CCC2 [Meticrane]	> 20	
CC(=O)Oc1c(C)cc(OCC(O)CNC(C)C)c(C)c1C (centres unmarked) [Metipranolol]	> 50	
CSc1ccc2c(c1)C(N1CCN(C)CC1)Cc1ccccc1S2 (centres unmarked) [Metitepine]	5.16	
CN1CCCC(CC2c3ccccc3Sc3ccccc32)C1 (centres unmarked) [Metixene hydrochloride]	8.17	
CON(C)C(=O)Nc1ccc(Br)cc1 [Metobromuron]		CC50 at 24 h (AC50 (uM) modified / 1000, Tox21_110001=Tox21_301964, viability, 1 nM T3 present, 24 h): > 90 µM
COc1ccc(/C=C/C(=O)c2ccc(OC)cc2OC)cc1 [Metochalcone]	46.1	
C[N+](C)(C)CCOC(=O)C(O)(c1ccccc1)c1ccccc1 [Metocinium iodide]	> 50	
CCN(CC)CCNC(=O)c1cc(Cl)c(N)cc1OC [Metoclopramide]	> 50	
